Entries after “also recorded” stand apart in the source; their conditions may differ.
Key:
male ICR mice [1] = assay: Physical dependence: naloxone-precipitated withdrawal jumping after chronic ICV infusion; type: in vivo, mouse; details: for physical dependence on chronic ICV administration: 3-day ICV infusion, naloxone-precipitated jumping; for # of Jumps (SEM), naloxone-precipitated withdrawal: average jumps in 10 minutes after naloxone 1 mg/kg sc, after 3-day ICV infusion
Protocol: (§1) Chronic administration To investigate tolerance and dependence associated with these conjugates, chronic ICV administration studies were performed. The compound of interest was administered ICV via a cannula using an osmotic minipump for 3 days, as previously described (Gomori et al., 2003; Mashiko et al., 2003). Withdrawal was measured by administering naloxone (1 mg/kg; subcutaneous (sc)) and counting the naloxone-precipitated jumps for 10 minutes. Tolerance was determined by administering challenge doses of the compound after chronic infusion for 3 days, and determining the chronic ED50 value at that time.
(§2) Chronic ICV infusion. Osmotic minipumps (model 1003D, Alzet, Durect Corporation, Cupertino, Calif.) were filled with saline or the drug to be tested. The dose of each drug was twelve times its ED50 (nmol)/hour. The minipumps were connected by a 1.6-1.8 cm length of PE-60 tubing to a 3-mm long cannula (osmotic pump connector cannula, Plastics One, Roanoke, Va.) and primed in sterile saline at 37° C. overnight.
(§3) The next day, mice were anesthetized with Avertin (2,2,2-tribromoethanol (370 mg/kg, IP)/tert amyl alcohol (0.16 mg/kg, IP)) before surgery. The scalp was shaved and an incision was made along the midline of the scalp. Hemostats were used to make a pocket under the skin between the shoulder blades. The skull was scraped clean of periosteum so that the cannula pedestal would properly adhere to the skull. A micro drill (Fine Science Tools Inc., Foster City, Calif.) was used to drill a hole approximately 1.6 mm lateral and 0.6 mm caudal to bregma. The minipump was placed between the shoulder blades, the cannula was inserted in the drilled hole into the lateral ventricle, and the cannula pedestal was affixed to the skull with cyanoacrylate glue. The animals were allowed to recover on a heating pad (Fine Science Tools, Foster City, Calif.) and were returned to their cages in the animal facility for three days.
Testing for dependence and tolerance. The development of physical dependence was assessed by quantifying withdrawal jumping observed during precipitated withdrawal (Way et al., 1969) on the fourth day after surgery. Mice were injected with naloxone (1 mg/kg, sc) and placed into Plexiglas cylinders for 10 minutes. During those 10 minutes, vertical jumps were counted as withdrawal signs.

mice = assay: Conditioned place preference (CPP); type: in vivo, mouse; details: for conditioned place preference: IV; for conditioned place preference (summary statement): dose not restated
Protocol: Conditioned place preference (CPP) is a technique used to measure the rewarding properties of a drug. Two sides of the CPP apparatus have both visual and tactile differences, so that a mouse can tell the difference between sides. On the first day of testing, the time each mouse spends in either side of the apparatus is measured. For the next three days, the drug is “paired” with one side or the other by injecting the mouse and immediately confining it to that side. On the final day, the amount of time the mouse spends in the drug-paired side is determined and the percent change is calculated. If the percent change is positive, the drug is thought to be rewarding and likely to be abused by humans.
Methods The CPP apparatus used was a plastic box, approximately 12 inches×6 inches×6 inches (1/w/h). One half of the box was transparent with a scored or textured floor and the other half of the box had blue vertical stripes with a smooth floor. The box was divided such that the mice could go from one side to the other through an opening or be confined to one side.
Preconditioning On day 1, each mouse was allowed to explore both sides of the box for 15 minutes to expose them to the novel environment. On day 2, each mouse was placed into the box for 15 minutes and the amount of time the mouse spent in each side of the box was recorded. Mice that spend more than 9 minutes in one side of the box are excluded (two of 32 mice were excluded).
Conditioning On day 3, each mouse was given two sets of IV injections. First, the mice were injected with saline and randomly confined to one side of the box for 30 minutes. The mice were then injected with the drug (or saline, for control mice) and confined to the other side of the box (“drug-paired side”) for 30 minutes. This conditioning paradigm was repeated for three days.
Postconditioning On day 6, the amount of time the mouse spent in each side of the box was recorded. For the results, the amount of time the mouse spent in the drug-paired side during preconditioning was subtracted from the time spent in the drug-paired side during post-conditioning to reach a “score”: Score=Postconditioning time in drug-paired side-Preconditioning time spent in drug-paired side.
FIG. 1 depicts the percent change in time spent in the drug-paired side. The asterisks in the graph indicate significant difference from saline (p<0.05).

male ICR mice [2] = assay: Tolerance: tail flick ED50 after 3-day chronic ICV infusion (osmotic minipump); type: in vivo, mouse; details: for tolerance on chronic ICV administration: 3-day ICV infusion; for Chronic ED50 nmol (95% C.L.): compound chronically administered ICV for 3 days, then challenge doses; for Saline ED50 nmol (95% C.L.): saline chronically administered ICV for 3 days, then challenge doses of compound
Protocol: as §1, §2, §3
To test the degree of tolerance developed, the osmotic minipump was removed and the mice were returned to their cages for four hours. The mice were then injected with the test drug into the contralateral lateral cerebral ventricle and antinociception was measured with the tail flick test as described above.

male ICR mice [3] = assay: Mouse radiant heat tail flick assay after acute ICV administration; type: in vivo; details: for ED50 nmol (95% C.L.), antinociceptive potency: mouse tail flick, acute ICV administration, conjugates and coadministration; for effect of naltrindole pretreatment on ED50 / acute analgesic activity: pretreatment with the delta antagonist naltrindole; for ED50 ICV (nmol): tail flick, Table 2
Protocol: Acute drug administration. Drugs were dissolved in sterile saline (0.9% NaCl). Animals were anesthetized with halothane and drugs were administered with a Hamilton syringe mated to a shortened (3 mm) 27-g needle in a volume of 4 μl by ICV injection into the lateral cerebral ventricle (Haley et al., 1957). The injection site was 1.6 mm lateral and 0.6 mm caudal to bregma.
Antinociceptive testing. […] Mice were tested once before injection (control time).

male ICR mice [4] = assay: Mouse tail flick assay after IV administration; details: for decrease in potency when administering IV versus ICV: tail flick ED50 IV versus ICV
Protocol: Antinociceptive testing. Antinociception was evaluated by the radiant heat tail flick assay (D'Amour et al., 1941). Briefly, a beam of light was focused on the mouse tail and the time until the tail flicked was measured. Each animal served as its own control and was used only once. Mice were tested once before injection (control time). After injection, the mice were tested at the time of peak drug response (drug time), as determined by pilot time course studies. The light intensity was adjusted so that control times were between 1.5 and 2.5 s. A 10 second cutoff drug time was set to minimize the risk of tissue damage. Percent maximum possible effect (% MPE) was calculated as follows (Dewey et al., 1970): […]
Graded dose response curves of at least 4 doses with at least 8 mice per dose were generated from the % MPE data.
Methods Drugs were administered IV via the tail vein in a volume of 100 μl to male ICR mice. Fifteen minutes later, antinociception was measured by the tail flick assay and charcoal meal (300 μl, oral) was administered by gavage. Thirty minutes after the charcoal meal., the mice were sacrificed by halothane overdose and the distance the charcoal traveled relative to the entire length of the GI tract was compared to the distance traveled in control animals injected with saline. The conjugates tested (MDAN-16, MDAN-19, MDAN-20, and MDAN-21) had linker lengths of 19, 23, 24, and 25 Å.

male ICR mice [5] = assay: GI transit inhibition (charcoal meal) after IV administration; type: in vivo, mouse

Row | SMILES | # of Jumps (SEM), naloxone-precipitated withdrawal (male ICR mice [1]) | conditioned place preference (mice; 4× the ED90 analgesic dose) | Chronic ED50 nmol (95% C.L.) (male ICR mice [2]) | Saline ED50 nmol (95% C.L.) (male ICR mice [2]) | ED50 nmol (95% C.L.), antinociceptive potency (male ICR mice [3]) | effect of naltrindole pretreatment on ED50 / acute analgesic activity (male ICR mice [3]) | decrease in potency when administering IV versus ICV (male ICR mice [4]) | ED50 IV (nmol) (male ICR mice [4]; tail flick, IV) | conditioned place preference (summary statement) (mice) | ED50 ICV (nmol) (male ICR mice [3]) | further results
1 | CN1CCC23c4c5ccc(O)c4OC2C(NC(=O)COCC(=O)NCCNC(=O)COCC(=O)Nc2cccc4c6c([nH]c24)C2Oc4c(O)ccc7c4C24CCN(CC2CC2)C(C7)C4(O)C6)CCC3(O)C1C5 (stereo not shown) [Compound 3] | 30 (23) | suggested a place preference | 4.72 (3.47-5.91) nmol | 1.62 (1.35-1.89) nmol | 1.79 (1.54-2.04) nmol | This effect was not observed |  |  |  |  | physical dependence on chronic ICV administration (male ICR mice [1]; listed as MDAN-16): produced both tolerance and dependence; also recorded: both tolerance and physical dependence developed; # of Jumps (SEM), naloxone-precipitated withdrawal (male ICR mice [1]; listed as MDAN-16): 30; tolerance on chronic ICV administration (male ICR mice [2]; listed as MDAN-16): produced both tolerance and dependence; also recorded: both tolerance and physical dependence developed; fold increase in ED50 value after chronic ICV infusion (male ICR mice [2]; three-day ICV infusion): 2.6 fold
2 | CN1CCC23c4c5ccc(O)c4OC2C(NC(=O)COCC(=O)NCCCCCNC(=O)COCC(=O)Nc2cccc4c6c([nH]c24)C2Oc4c(O)ccc7c4C24CCN(CC2CC2)C(C7)C4(O)C6)CCC3(O)C1C5 (stereo not shown) [Compound 6] | 3.6 (1.7) | did not display a place preference | 0.40 (0.33-0.47) nmol | 0.42 (0.37-0.47) nmol | 0.43 (0.36-0.50) nmol | acute analgesic activity was similar to the control ligand MA-19 |  |  |  |  | physical dependence on chronic ICV administration (male ICR mice [1]; listed as MDAN-19): no tolerance or dependence was observed; also recorded: produced no tolerance or physical dependence; tolerance on chronic ICV administration (male ICR mice [2]; listed as MDAN-19): no tolerance or dependence was observed; also recorded: produced no tolerance or physical dependence
3 | CN1CCC23c4c5ccc(O)c4OC2C(NC(=O)COCC(=O)NCCCCCCCNC(=O)COCC(=O)Nc2cccc4c6c([nH]c24)C2Oc4c(O)ccc7c4C24CCN(CC2CC2)C(C7)C4(O)C6)CCC3(O)C1C5 (stereo not shown) [Compound 8] | 3.5 (1.7) | did not display a place preference | 0.10 (0.09-0.11) nmol | 0.10 (0.09-0.11) nmol | 0.08 (0.06-0.10) nmol |  | ~40 × | 3.3 (3.0-3.6) nmol | does not produce conditioned place preference | 0.08 (0.06-0.10) nmol | potency relative to morphine when given IV (male ICR mice [4]; tail flick, IV): 50 fold; physical dependence on chronic ICV administration (male ICR mice [1]; listed as MDAN-21): no tolerance or dependence was observed; also recorded: produced no tolerance or physical dependence; tolerance on chronic ICV administration (male ICR mice [2]; listed as MDAN-21): no tolerance or dependence was observed; also recorded: produced no tolerance or physical dependence
4 | CN1CC[C@]23c4c5ccc(O)c4O[C@H]2[C@@H](O)C=C[C@H]3[C@H]1C5 [Morphine, reference compound] | 100 (15) | demonstrated conditioned place preference | 26.80 (20.82-32.78) nmol | 4.54 (3.51-5.56) nmol |  |  | ~40 × | 168 (146-178) nmol | produced conditioned place preference | 4.1 (3.7-4.8) nmol | efficacy in the TF test (male ICR mice [4]; IV, tail flick 15 min after drug): fully efficacious; # of Jumps (SEM), naloxone-precipitated withdrawal (male ICR mice [1]; listed as morphine): 100±15; efficacy in the GIT inhibition assay (male ICR mice [5]): fully efficacious; GIT inhibition ED50 (male ICR mice [5]; charcoal meal 15 min after drug): 129 (115-142) nmol; conditioned place preference (mice; 2× the ED90 analgesic dose): exhibiting a conditioned place preference

Source: patent US20090233841A1, “ANALGESIC CONJUGATES” (Regents of the University of Minnesota, priority 2005, published 2009)
